Experimental data reported in patent publication US7537906B2, “Apoptosis inducer and method of screening for a substance inhibiting acylated homoserine lactone” (priority 2003, dated 2009).

What was measured:
Assay type in all cases: cell-based, human
[1] = test system: CaCo-2 cells; test: Evaluation of viability by Trypan blue staining; settings: 12 hours of culture
Method: 2×10^5 CaCo-2 cells were inoculated in a 3.5 cm dish (NUNC), washed twice with PBS (-), and then cultured in a serum-free DMEM medium containing 1% NEAA for 24 hours. Various agents [N-(3-oxododecanoyl)-L-homoserine lactones with final concentrations between 1 and 100 μM] were added, followed by 12 hours of culture. 0.25% DMSO was used as a control. Subsequently, the supernatant and the cells removed from the dish using trypsin-EDTA (TE) were centrifuged at 800 rpm at room temperature for 5 minutes. The supernatant was removed, and then dilution was carried out with 200 μl of DMEM. 50 μl of the dilution was taken in an Eppen tube, an equivalent volume of Trypan blue stain was added, and then the cell count was measured using a hemacytometer. At this time, the sum of the dead cell count and the viable cell count to be measured was determined to be 200 cells or more.

[2] = test system: caspase-3; test: Caspase activity by Western blot (cleaved caspase-3) in CaCo-2 cells
Method: (§1) The activities of caspase (caspase-3 and caspase-9) and PARP (poly-ADP ribose polymerase) were measured in a manner similar to those in Examples 1 and 2 by Western blot analysis using each of anti-activated (cleaved) caspase antibodies, that is, an anti-cleaved caspase-3 antibody, an anti-cleaved caspase-9 antibody (D330) and an anti-cleaved PARP antibody (D214).
(§2) N-(3-oxododecanoyl)-L-homoserine lactones with final concentrations of 30 μM and 100 μM were each added to cultured CaCo-2 cells. Caspase-3, caspase-9 and PARP activities were analyzed over time by Western blot at 0 hours, 1 hour, 2 hours, 4 hours, 6 hours, 8 hours and 10 hours after culture. […] Whereas at 30 μM, activated caspase-3 began to be detected 1 hour after stimulation and the activity lasted until 4 hours after stimulation, at 100 μM the activity peaked at 6 hours and lasted until 10 hours after stimulation. Cleaved caspase-9 and cleaved PARP were detected by reprobing each membrane.
(§3) Next, 3 hours of reaction with N-(3-oxododecanoyl)-L-homoserine lactone was carried out at concentrations of 0, 1, 10, 30, and 100 μM, and then caspase and PARP activities were measured.

[3] = test system: Akt; test: Akt activity (phospho-Akt) by Western blot in CaCo-2 cells
Method: CaCo-2, the carcinoma cell line of human colon cancer, was purchased from American Type Culture Collection (ATCC), and cultured at 37° C. in the presence of 5% CO2 using a DMEM medium containing 10% FCS, 1% NEAA, and 1% P/S (100 units/ml penicillin and 100 μg/ml streptomycin).
6×10^5 CaCo-2 cells were inoculated per dish using 6 cm dishes (NUNC), washed twice with phosphate buffered saline (PBS) (-), and then cultured for 24 hours in a serum-free DMEM medium containing 1% NEAA. Subsequently, at a final concentration of 100 μM, homoserine lactone hydrochloride, N-butyryl-L-homoserine lactone, N-(3-oxohexanoyl)-L-homoserine lactone and N-(3-oxododecanoyl)-L-homoserine lactone were each added, and then each solution was allowed to react for 10 minutes. In addition, purified acylated homoserine lactone that was used herein had been dissolved in DMSO in a concentration 400 times higher than the target final concentration, and then subjected to filter sterilization (φ 0.22 μm). DMSO at a final concentration of 0.25% was used as a control. In addition, α-tubulin was used as an internal standard.
After reaction, the product was washed twice with cold PBS (-), and then frozen at −80° C. The cells were thawed on ice, 200 μl of a lysis buffer (50 mM HEPES, pH7.5, 50 mM NaCl, 1 mM EDTA, 1.5 mM MgCl2, 1% Triton X-100, 10% glycerine, 10 mM sodium pyrophosphate, 1 mM Na3VO4, 100 mM NaF, 1 mM PMSF, 10 μg/ml aprotinin and 10 μg/ml leupeptin) was added, and then the cells were scraped off using a scraper. The cells were allowed to stand on ice for 20 minutes, and then centrifuged at 14,000 rpm at 4° C. for 15 minutes, thereby collecting the supernatant. Concentration of the collected protein was measured, and protein equivalent to 50 μg was subjected to SDS-PAGE. After electrophoresis, the product was blotted on a PVDF membrane. When phospho-Akt was measured, blocking was carried out with 5% skim milk/Tris-buffered saline containing 0.1% Tween 20 (TBS-T), and the anti-phospho-Akt ([…]) antibody and the HRP-labeled anti-rabbit IgG antibody were used as a primary antibody and a secondary antibody, respectively. For α-tubulin used as an internal standard, blocking was carried out with 5% bovine serum albumin (BSA)/TBS-T, and the anti-α-tubulin (Ab-1) and the HRP-labeled anti-mouse IgG antibody were used as a primary antibody and a secondary antibody, respectively. For band detection, Renaissance™ Western Blot Chemiluminescence […] Reagent Plus (NEN) or Western Blotting Luminol Reagent (SANTA CRUZ BIOTECHNOLOGY) was used. […] In addition in the figure that is described below, HSL means homoserine lactone hydrochloride, C4-HSL means N-butyryl-L-homoserine lactone, 3-oxo-C6-HSL means N-(3-oxohexanoyl)-L-homoserine lactone, and 3-oxo-C12-HSL means N-(3-oxododecanoyl)-L-homoserine lactone.
After cell culture, N-(3-oxododecanoyl)-L-homoserine lactones with final concentrations of 0 μM (0.25% DMSO), 1 μM, 10 μM, 30 μM and 100 μM were each added. Akt activity was analyzed by Western blot in a manner similar to that used in (1), except for carrying out reaction for 10 minutes (FIG. 2).
After cell culture, N-(3-oxododecanoyl)-L-homoserine lactones with final concentrations of 30 μM and 100 μM were each added. For each case, Akt activity was measured by Western blot in a manner similar to that in (1), except for carrying out stimulation with acylated homoserine lactone in a short time course of 0, 5, 10, 30 and 60 minutes (FIG. 4), and in a long time course of 0, 10 minutes, 60 minutes, 2 hours, 4 hours, 6 hours, 8 hours and 10 hours (FIG. 5). In the case of stimulation at 30 μM, the inhibition of Akt activity peaked at 5 minutes, and lasted until 60 minutes after stimulation, and then returned to the base level within 2 hours. On the other hand, in the case of stimulation at […], the inhibition of Akt activity peaked at 5 minutes and lasted until 6 hours after stimulation. […]

[4] = test system: caspase-9; test: Caspase activity by Western blot (cleaved caspase-9) in CaCo-2 cells
Method: as §1, §2, §3

[5] = 3 hours of reaction, 0, 1, 10, 30 and 100 μM

In the case of `CCCCCCCCCC(=O)CC(=O)N[C@H]1CCOC1=O` [N-(3-oxododecanoyl)-L-homoserine lactone], the viability ([1]; 1 μM) is reported as 94%, the viability ([1]; 10 μM) is reported as 90% and the viability ([1]; 30 μM) is reported as 55%. The viability ([1]; 100 μM) was 51%, the “concentration at which viability was significantly decreased” value [1] was ≥ 30 µM and the “caspase-3 activity lasted until (after stimulation)” value ([2]; 30 μM) was 4 h. For the same molecule, the “time at which activated caspase-3 began to be detected after stimulation” value ([2]; 30 μM) was 1 h, the “caspase-3 activity lasted until (after stimulation)” value ([2]; 100 μM) was 10 h and the “time of peak caspase-3 activity” value ([2]; 100 μM) was 6 h. The “concentration at which cleaved caspase (caspase-3) was detected” value [2, 5] was ≥ 30 µM, the “Akt activity, % of that where no stimulation was provided” value ([3]; 10 μM, 10 minutes) was 79% and the “Akt activity, % of that where no stimulation was provided” value ([3]; 30 μM, 10 minutes) was 31%. For the same molecule, the “Akt activity, % of that where no stimulation was provided” value ([3]; 100 μM, 10 minutes) was 14%, the “level of phosphorylated Akt” value ([3]; 100 μM, 10 minutes) was “significantly decreased” and the “concentration at which levels of phosphorylated Akt significantly decreased” value ([3]; 10 minutes) was ≥ 10 µM. The “time at which inhibition of Akt activity peaked” value (shortened to “time at which inhibition”) ([3]; stimulation at 10 μM) was 5 min, the “inhibition of Akt activity lasted until (after stimulation)” value ([3]; stimulation at 30 μM) was 60 min and the “time at which inhibition” value ([3]; stimulation at 30 μM) was 5 min. For the same molecule, the “time for Akt activity to return to the base level” value ([3]; stimulation at 30 μM) was ≤ 2 h, the “inhibition of Akt activity lasted until (after stimulation)” value ([3]; stimulation at 100 μM) was 360 min and the “time at which inhibition” value ([3]; stimulation at 100 μM) was 5 min. The “caspase-9 activity over time” value ([4]; 30 μM) was “strong at 1, 2 and 4 hours”, the “weak caspase-9 activity lasted until (after stimulation)” value ([4]; 30 μM) was 8 h and the “strong caspase-9 activity lasted until (after stimulation)” value ([4]; 100 μM) was 8 h. The “concentration at which cleaved caspase (caspase-9) was detected” value [4, 5] was ≥ 30 µM.
